≈ marks a conversion by molar mass, not a printed value.
Legend:
Assay type in all cases: functional
Staphylococcus aureus [1] = assay: Anti-bacterial activity against methicillin-resistant Staphylococcus aureus N315 assessed as inhibition of bacterial growth; conditions: Staphylococcus aureus, N315; read-out: MIC
Staphylococcus aureus [2] = assay: Anti-bacterial activity against Staphylococcus aureus ATCC 12600 assessed as inhibition of bacterial growth; conditions: Staphylococcus aureus, ATCC 12600; read-out: MIC
Candida parapsilosis = assay: Anti-fungal activity against Candida parapsilosis assessed as inhibition of fungal growth; conditions: Lodderomyces parapsilosis; read-out: MIC
Candida albicans [3] = assay: Anti-fungal activity against Candida albicans assessed as inhibition of fungal growth; conditions: Candida albicans; read-out: MIC
Pseudomonas aeruginosa [4] = assay: Anti-bacterial activity against Pseudomonas aeruginosa ATCC 27853 assessed as inhibition of bacterial growth; conditions: Pseudomonas aeruginosa, ATCC 27853; read-out: MIC
Enterococcus faecalis = assay: Anti-bacterial activity against Enterococcus faecalis V583 assessed as inhibition of bacterial growth
Klebsiella pneumoniae = assay: Anti-bacterial activity against Klebsiella pneumoniae KPN325 assessed as inhibition of bacterial growth; conditions: Klebsiella pneumoniae, KPN325; read-out: MIC
Staphylococcus aureus [5] = assay: Anti-bacterial activity against Staphylococcus aureus CMCC (B) 26003 assessed as inhibition of bacterial growth
Acinetobacter baumannii = assay: Anti-bacterial activity against Acinetobacter baumannii R674 assessed as inhibition of bacterial growth
Staphylococcus aureus [6] = assay: Anti-bacterial activity against Staphylococcus aureus ATCC 25923 assessed as inhibition of bacterial growth; conditions: Staphylococcus aureus, ATCC 25923; read-out: MIC
Candida tropicalis = assay: Anti-fungal activity against Candida tropicalis assessed as inhibition of fungal growth; conditions: Candida tropicalis; read-out: MIC
Escherichia coli [7] = assay: Anti-bacterial activity against Escherichia coli JM109 assessed as inhibition of bacterial growth
Staphylococcus aureus [8] = assay: Anti-bacterial activity against methicillin-resistant Staphylococcus aureus ATCC 43300 assessed as inhibition of bacterial growth; conditions: Staphylococcus aureus, ATCC 43300; read-out: MIC
Staphylococcus aureus [9] = assay: Anti-bacterial activity against Staphylococcus aureus ATCC 29213 assessed as inhibition of bacterial growth; conditions: Staphylococcus aureus, ATCC 29213; read-out: MIC
Pseudomonas aeruginosa [10] = assay: Anti-bacterial activity against Pseudomonas aeruginosa ST235 assessed as inhibition of bacterial growth; conditions: Pseudomonas aeruginosa, ST235; read-out: MIC
Pseudomonas aeruginosa [11] = assay: Anti-bacterial activity against Pseudomonas aeruginosa ATCC 15442 assessed as inhibition of bacterial growth; conditions: Pseudomonas aeruginosa, ATCC 15442; read-out: MIC
Escherichia coli [12] = assay: Anti-bacterial activity against Escherichia coli ATCC 25922 assessed as inhibition of bacterial growth
Staphylococcus aureus [13] = assay: Anti-bacterial activity against Staphylococcus aureus ATCC 1708 assessed as inhibition of bacterial growth; conditions: Staphylococcus aureus, ATCC 1708; read-out: MIC
Pseudomonas aeruginosa [14] = assay: Anti-bacterial activity against Pseudomonas aeruginosa ATCC 9027 assessed as inhibition of bacterial growth
Candida albicans [15] = assay: Anti-fungal activity against Candida albicans 90023 assessed as inhibition of fungal growth
Staphylococcus aureus [16] = assay: Anti-bacterial activity against Staphylococcus aureus ATCC 6538 assessed as inhibition of bacterial growth
Pseudomonas aeruginosa [17] = assay: Anti-bacterial activity against Pseudomonas aeruginosa CMCC (B) 10104 assessed as inhibition of bacterial growth; conditions: Pseudomonas aeruginosa, CMCC (B) 10104; read-out: MIC
Staphylococcus aureus [18] = assay: Anti-bacterial activity against Staphylococcus aureus CMCC (B) 26001 assessed as inhibition of bacterial growth

SMILES | MIC (Staphylococcus aureus [1]) [µM] | MIC (Staphylococcus aureus [2]) [µM] | MIC (Candida parapsilosis) [µM] | MIC (Candida albicans [3]) [µM] | MIC (Pseudomonas aeruginosa [4]) [µM] | MIC (Enterococcus faecalis) [µM] | MIC (Klebsiella pneumoniae) [µM] | MIC (Staphylococcus aureus [5]) [µM] | MIC (Acinetobacter baumannii) [µM] | MIC (Staphylococcus aureus [6]) [µM] | MIC (Candida tropicalis) [µM] | MIC (Escherichia coli [7]) [µM] | MIC (Staphylococcus aureus [8]) [µM] | MIC (Staphylococcus aureus [9]) [µM] | MIC (Pseudomonas aeruginosa [10]) [µM] | MIC (Pseudomonas aeruginosa [11]) [µM] | MIC (Escherichia coli [12]) [µM] | MIC (Staphylococcus aureus [13]) [µM] | MIC (Pseudomonas aeruginosa [14]) [µM] | MIC (Candida albicans [15]) [µM] | further results
CCOC(=O)C1=C(CN2CCN(C(=O)/C(=N/OC)c3csc(N)n3)CC2)NC(=O)NC1c1cccs1 (stereo not drawn) | 30 (≈ 16 µg/mL) | 240 (≈ 128 µg/mL) | 480 (≈ 256 µg/mL) | 480 (≈ 256 µg/mL) | 240 (≈ 128 µg/mL) | 120 (≈ 64 µg/mL) | 240 (≈ 128 µg/mL) | 240 (≈ 128 µg/mL) | 480 (≈ 256 µg/mL) | 240 (≈ 128 µg/mL) | 480 (≈ 256 µg/mL) | 240 (≈ 128 µg/mL) | 30 (≈ 16 µg/mL) | 240 (≈ 128 µg/mL) | 480 (≈ 256 µg/mL) | 60 (≈ 32 µg/mL) | 240 (≈ 128 µg/mL) | 240 (≈ 128 µg/mL) | 480 (≈ 256 µg/mL) | 480 (≈ 256 µg/mL) | MIC (Staphylococcus aureus [16]): 60 µM (≈ 32 µg/mL); MIC (Pseudomonas aeruginosa [17]): 240 µM (≈ 128 µg/mL); MIC (Staphylococcus aureus [18]): 240 µM (≈ 128 µg/mL)
CCOC(=O)C1=C(CN2CCN(C(=O)/C(=N/OC)c3csc(N)n3)CC2)NC(=O)NC1c1cccc(O)c1 (stereo not drawn) | 118 (≈ 64.1 µg/mL) | 15 (≈ 8.15 µg/mL) | 430 (≈ 234 µg/mL) | 430 (≈ 234 µg/mL) | 59 (≈ 32.1 µg/mL) | 15 (≈ 8.15 µg/mL) | 59 (≈ 32.1 µg/mL) | 236 (≈ 128 µg/mL) | 15 (≈ 8.15 µg/mL) | 118 (≈ 64.1 µg/mL) | 430 (≈ 234 µg/mL) | 59 (≈ 32.1 µg/mL) | 59 (≈ 32.1 µg/mL) | 59 (≈ 32.1 µg/mL) | 59 (≈ 32.1 µg/mL) | 59 (≈ 32.1 µg/mL) | 59 (≈ 32.1 µg/mL) | 118 (≈ 64.1 µg/mL) | 59 (≈ 32.1 µg/mL) | 7 (≈ 3.81 µg/mL) | MIC (Staphylococcus aureus [16]): 59 µM (≈ 32.1 µg/mL); MIC (Pseudomonas aeruginosa [17]): 117 µM (≈ 63.6 µg/mL); MIC (Staphylococcus aureus [18]): 59 µM (≈ 32.1 µg/mL)
CCOC(=O)C1=C(CN2CCN(C(=O)/C(=N/OC)c3csc(N)n3)CC2)NC(=O)NC1c1ccc(F)cc1F (stereo not drawn) | 114 (≈ 64.2 µg/mL) | 57 (≈ 32.1 µg/mL) | 464 (≈ 262 µg/mL) | 464 (≈ 262 µg/mL) | 57 (≈ 32.1 µg/mL) | 28 (≈ 15.8 µg/mL) | 114 (≈ 64.2 µg/mL) | 114 (≈ 64.2 µg/mL) | 57 (≈ 32.1 µg/mL) | 28 (≈ 15.8 µg/mL) | 464 (≈ 262 µg/mL) | 114 (≈ 64.2 µg/mL) | 28 (≈ 15.8 µg/mL) | 57 (≈ 32.1 µg/mL) | 57 (≈ 32.1 µg/mL) | 28 (≈ 15.8 µg/mL) | 57 (≈ 32.1 µg/mL) | 57 (≈ 32.1 µg/mL) | 114 (≈ 64.2 µg/mL) | 15 (≈ 8.45 µg/mL) | MIC (Staphylococcus aureus [16]): 57 µM (≈ 32.1 µg/mL); MIC (Pseudomonas aeruginosa [17]): 114 µM (≈ 64.2 µg/mL); MIC (Staphylococcus aureus [18]): 57 µM (≈ 32.1 µg/mL)
CCOC(=O)C1=C(CN2CCN(C(=O)/C(=N/OC)c3csc(N)n3)CC2)NC(=O)NC1c1ccc(O)c(OC)c1 (stereo not drawn) | 112 (≈ 64.2 µg/mL) | 112 (≈ 64.2 µg/mL) | 444 (≈ 255 µg/mL) | 444 (≈ 255 µg/mL) | 48 (≈ 27.5 µg/mL) | 14 (≈ 8.03 µg/mL) | 48 (≈ 27.5 µg/mL) | 112 (≈ 64.2 µg/mL) | 48 (≈ 27.5 µg/mL) | 56 (≈ 32.1 µg/mL) | 444 (≈ 255 µg/mL) | 95 (≈ 54.5 µg/mL) | 28 (≈ 16.1 µg/mL) | 56 (≈ 32.1 µg/mL) | 48 (≈ 27.5 µg/mL) | 48 (≈ 27.5 µg/mL) | 48 (≈ 27.5 µg/mL) | 112 (≈ 64.2 µg/mL) | 95 (≈ 54.5 µg/mL) | 444 (≈ 255 µg/mL) | MIC (Staphylococcus aureus [16]): 112 µM (≈ 64.2 µg/mL); MIC (Pseudomonas aeruginosa [17]): 95 µM (≈ 54.5 µg/mL); MIC (Staphylococcus aureus [18]): 56 µM (≈ 32.1 µg/mL)
CCOC(=O)C1=C(CN2CCN(C(=O)/C(=N/OC)c3csc(N)n3)CC2)NC(=O)NC1c1ccc(C(F)(F)F)cc1 (stereo not drawn) | 108 (≈ 64.3 µg/mL) | 27 (≈ 16.1 µg/mL) | 430 (≈ 256 µg/mL) | 430 (≈ 256 µg/mL) | 54 (≈ 32.2 µg/mL) | 27 (≈ 16.1 µg/mL) | 108 (≈ 64.3 µg/mL) | 108 (≈ 64.3 µg/mL) | 27 (≈ 16.1 µg/mL) | 27 (≈ 16.1 µg/mL) | 430 (≈ 256 µg/mL) | 27 (≈ 16.1 µg/mL) | 27 (≈ 16.1 µg/mL) | 27 (≈ 16.1 µg/mL) | 54 (≈ 32.2 µg/mL) | 54 (≈ 32.2 µg/mL) | 27 (≈ 16.1 µg/mL) | 27 (≈ 16.1 µg/mL) | 54 (≈ 32.2 µg/mL) | 7 (≈ 4.17 µg/mL) | MIC (Staphylococcus aureus [16]): 54 µM (≈ 32.2 µg/mL); MIC (Pseudomonas aeruginosa [17]): 27 µM (≈ 16.1 µg/mL); MIC (Staphylococcus aureus [18]): 54 µM (≈ 32.2 µg/mL)
CCOC(=O)C1=C(CN2CCNCC2)NC(=O)NC1c1ccc2c(c1)c1ccccc1n2CC (stereo not drawn) | 222 (≈ 102 µg/mL) | 222 (≈ 102 µg/mL) | 470 (≈ 217 µg/mL) | 470 (≈ 217 µg/mL) | 222 (≈ 102 µg/mL) | 28 (≈ 12.9 µg/mL) | 222 (≈ 102 µg/mL) | 222 (≈ 102 µg/mL) | 7 (≈ 3.23 µg/mL) | 222 (≈ 102 µg/mL) | 470 (≈ 217 µg/mL) | 222 (≈ 102 µg/mL) | 111 (≈ 51.2 µg/mL) | 14 (≈ 6.46 µg/mL) | 222 (≈ 102 µg/mL) | 56 (≈ 25.8 µg/mL) | 222 (≈ 102 µg/mL) | 222 (≈ 102 µg/mL) | 444 (≈ 205 µg/mL) | 59 (≈ 27.2 µg/mL) | MIC (Staphylococcus aureus [16]): 111 µM (≈ 51.2 µg/mL); MIC (Pseudomonas aeruginosa [17]): 444 µM (≈ 205 µg/mL); MIC (Staphylococcus aureus [18]): 111 µM (≈ 51.2 µg/mL)

From ChEMBL document CHEMBL5505979, “Novel aminothiazoximone-corbelled ethoxycarbonylpyrimidones with antibiofilm activity to conquer Gram-negative bacteria through potential multitargeting effects” (Eur J Med Chem, 2024)
